Data: patent publication US20020082291A1, “NEW USE OF TAXOID DERIVATIVES” (priority 1999, published 2002)

Test system: mammary adenocarcinoma MA17/A
Experiment: Oral antitumor efficacy and toxicity against early stage mammary adenocarcinoma MA17/A grafted subcutaneously in mice
Format: in vivo
Details: for log cell kill: tumor doubling time 1.3 days
Method: Formulation II: 0.2 mg/ml of the compound of formula (la) was mixed in a solution comprising 5% ethanol, 5% Polysorbate 80, and 90% of an aqueous 5% glucose solution.
15 female C3H/HeN mice, each weighing approximately 20 g, were each administered Formulation II orally in a dose of 20.6 mg.kg^−1 per administration per mouse,12.8, 8.4 and 5.5 each day for 5 days.
Animals: The animals subjected to the experiment, generally mice, were subcutaneously grafted bilaterally with 30 to 60 mg of a mammary tumor fragment (adenocarcinoma MA17/A) on day 0. The animals bearing tumors were mixed before being assigned to the various treatment and control groups. Chemotherapy generally began from 3 to 7 days after grafting, depending on the type of tumour, and the animals were observed every day. The different animal groups were weighed 3 or 4 times a week until the maximum weight loss was attained, and the groups were then weighed at least once a week until the end of the trial.
Efficacy: The efficacy of the new pharmaceutical form was evaluated by:
the tumor growth inhibitor (T/C)
The T/C value in percent is an indication of antitumor effectiveness: [formula]
According to NCI standards, a T/C<42% is the minimal level to declare activity. A T/C<10% is considered to indicate high antitumor activity and is the level used by NCI to justify further development (Decision Network-2 level, DN-2).
The T/C value can be converted to an arbitrary activity rating according to the NCI criteria:
and quantified by the log cell kill which is determined by the following formula:
log10 cells killed=T−C(days)/3.32×Td
in which T−C represents the time in days for the tumors of the treated group (T) and the tumors of the non-treated group (C) to reach a predetermined value (750 mg for example). This method is described in T. H. CORBETT et al., Cancer, 40, 2660-2680 (1977); F.M. SCHABEL et al., Cancer Drug Development, Part B. Methods in Cancer Research, 17, 3-51, New York Academic Press Inc. (1979), the disclosure of which is incorporated by reference herein. A product is considered to be active if log10 cells killed is greater than or equal to 0.7. A product is considered to be very active if log10 cells killed is greater than 2.8.

[1] = p.o. 5.5 mg/kg/dose, days 3 to 7, total dose 27.5 mg/kg
[2] = p.o. 8.4 mg/kg/dose, days 3 to 7, total dose 42.0 mg/kg
[3] = p.o. 12.8 mg/kg/dose, days 3 to 7, total dose 64.0 mg/kg

For `CO[C@H]1C(=O)[C@]2(C)[C@@H](OC)C[C@H]3OC[C@@]3(OC(C)=O)[C@H]2[C@H](OC(=O)c2ccccc2)[C@]2(O)C[C@H](OC(=O)[C@H](O)[C@@H](NC(=O)OC(C)(C)C)c3ccccc3)C(C)=C1C2(C)C` [Product of formula IA, 4α-acetoxy-2α-benzoyloxy-5β,20-epoxy-1β-hydroxy-7β,10β-dimethoxy-9-oxo-11-taxen-13α-yl (2R, 3S)-3tert-butoxycarbonylamino-2-hydroxy-3-phenylpropionate], which Comments [1] is on record?
Its Comments is “Inactive”.

What about the “Drug death (days or death)” value [1] of the same molecule?
Its value is 0/5.

And the T-C [1]?
Its T-C is 2.3 days.

What about the “Time for median tumor to reach 750 mg” value [1] of the same molecule?
Its value is 14.4 days.

What about the “Average body weight change in % per mouse post last treatment (day)” value (p.o. 5.5 mg/kg/dose, days 3 to 7, total dose 27.5 mg/kg, day 8) of the same molecule?
The value was “+0.2(8) %”.

And the “Median tumor weight in mg on day 12 (range)” value (“Median tumor weight in mg” for short) [1]?
The value was 271(107-432) mg.

And the “T/C in % day 12” value [1]?
Its value is 38%.

And the log cell kill [1]?
Its log cell kill is 0.5.

What about the Comments [2] of the same molecule?
Its Comments is “Active”.

And the “Drug death (days or death)” value [2]?
Its value is 0/5.

And the T-C [2]?
The T-C was 6.1 days.

And the “Time for median tumor to reach 750 mg” value [2]?
Its value is 18.2 days.

What about the “Average body weight change in % per mouse post last treatment (day)” value (p.o. 8.4 mg/kg/dose, days 3 to 7, total dose 42.0 mg/kg, day 9) of the same molecule?
The value was −11.0(9) %.

What about the “Median tumor weight in mg” value [2] of the same molecule?
The value was 0(0-268) mg.

And the “T/C in % day 12” value [2]?
The value was 0%.

And the log cell kill [2]?
The log cell kill was 1.4.

And the Comments [3]?
Its Comments is “HNTD”.

And the “Drug death (days or death)” value [3]?
The value was 0/5.

What about the T-C [3] of the same molecule?
The T-C was 13.8 days.

What about the “Time for median tumor to reach 750 mg” value [3] of the same molecule?
Its value is 25.9 days.

And the “Average body weight change in % per mouse post last treatment (day)” value (p.o. 12.8 mg/kg/dose, days 3 to 7, total dose 64.0 mg/kg, day 10)?
The value was −17.9(10) %.

And the “Median tumor weight in mg” value [3]?
Its value is 0(0-0) mg.

And the “T/C in % day 12” value [3]?
Its value is 0%.

What about the log cell kill [3] of the same molecule?
The log cell kill was 3.2.

What about the Comments (p.o. 20.6 mg/kg/dose, days 3 to 7, total dose 103.0 mg/kg) of the same molecule?
Its Comments is “Toxic”.

What about the “Drug death (days or death)” value (p.o. 0.2 ml, 20.6 mg/kg/dose, days 3 to 7, total dose 103.0 mg/kg, female C3H/HeN mice) of the same molecule?
Its value is 5/5(7,2d8,10,11).
